Where a name gives a salt, the structure may show the parent alone.

Data on 42 compounds can be found in patent publication US20090138208A1, “IMMUNOGLOBULIN G BINDING POCKET” (GE HEALTHCARE BIO-SCIENCES AB, priority 2002, published 2009).

The assay has as its target human Fab of κ-type (Homo sapiens, UniProt P01834+P01857). Briefly: STD NMR screening (1D saturation transfer difference) for binding to antibody. More on the design: key: 0 no; 1 weak; 2 strong signal. The settings on record: 0.5 mM ligand; for NMR signal conc 1: 500 nM antibody, 298 K; for NMR signal conc 2: 100 nM antibody; for NMR signal conc 3: 20 nM antibody. Here is the method:
All NMR experiments were performed at 298 K on a Bruker Avance 500 MHz spectrometer. The 1D saturation transfer difference method (STD NMR) was used as screening assay (Mayer M. and Meyer B. 1999. Characterization of Ligand Binding by Saturation Transfer Difference NMR Spectroscopy. Angew. Chem., Int. Ed. 38: 1784-1788) using several antibody concentrations in order to differentiate between compounds with different binding strength (Peng J. W., Lepre C. A., Fejzo J., Abdul-Manan N. and Moore J. M. 2001. Nuclear Magnetic Resonance-Based Approaches for Lead Generation in Drug Discovery. Methods in Enzymology. 338: 202-230). The antibody used was a human Fab of κ-type. In all cases ligands were tested one-by-one. On-resonance irradiation was set at 0 ppm and off-resonance irradiation was set at −40 ppm. Irradiation time in each scan was 2 s and 16 K data points were collected with 1024 scans in total. Compounds for testing were dissolved in DMSOd6 to a concentration of 50 mM and 5 μL of the concentrated ligand solution was added to 495 μL buffer solution. The samples thus consisted of 0.5 mM ligand, 20 mM phosphate buffer, 100 mM NaCl and […] in D2O at pD 7.5, uncorrected reading on pH-meter.
Compounds were initially tested for binding with 0.5 μM antibody. Interesting ligands were further tested with protein concentrations of 100 or 20 nM. A one-dimensional ^1H-spectrum was acquired first and subsequently a saturation transfer difference (STD) spectrum was acquired. Each analysis took 60 minutes on the spectrometer. […] The analysis was setup for automation so that several samples could be analysed over night (usually 10-15 samples/night).
As many as 46 of the virtual screening hits were tested with NMR according to the procedure described above. The results from NMR screening together with additional compound data are compiled in Table 1 below. In total 24 compounds gave a positive result in the first round with the highest antibody concentration (500 nM). These 24 compounds were subjected to a second round with an antibody concentration of 100 nM. The 4 compounds showing the strongest signal in the second round were tested for binding in a third round with 20 nM antibody. Three of the compounds in the third round gave a positive result and where thus designated as the strongest binders to the antibody out of the 46 tested compounds.

human Fab of κ-type, sequence (P01857 with tags, fused parts or gaps, other chains not shown): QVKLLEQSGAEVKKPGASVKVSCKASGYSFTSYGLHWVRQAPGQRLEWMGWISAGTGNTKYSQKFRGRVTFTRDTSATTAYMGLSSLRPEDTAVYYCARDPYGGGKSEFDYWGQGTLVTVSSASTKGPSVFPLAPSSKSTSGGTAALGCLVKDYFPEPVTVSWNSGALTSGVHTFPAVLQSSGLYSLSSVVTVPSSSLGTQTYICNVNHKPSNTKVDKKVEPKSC

On to `O=C(c1ccccn1)C(O)c1ccccn1` (stereo not drawn) [AB_0000510, alpha-pyridoin], for which the “NMR signal conc 1” value is reported as 0.
Still for that read-out and setting: the value for `CC1=NN(c2cccc(Cl)c2)C(=O)C1` [AB_0000530, 1-(3-chlorophenyl)-3-methyl-2-pyrazolin-5-one] was 0.
Still for that read-out and setting: for `O=C1C(=O)N(c2ccccc2)C(=O)N1c1ccccc1` [AB_0000540, 1,3-diphenylparabanic acid] the value was 0.
For `Cc1cc(C)nc(SCC(=O)Nc2ccc(F)c(Cl)c2)n1` [AB_0000580, n1-(3-chloro-4-fluorophenyl)-2-[(4,6-dimethylpyrimidin-2-yl)thio]acetamide], the “NMR signal conc 2” value worked out at 0 and the “NMR signal conc 1” value came out at 1.
The corresponding values for `c1ccc(-c2nnc3ccccc3n2)cc1` [AB_0000600, 3-phenyl-1,2,4-benzotriazine] are 1 and 1.
For the compound `O=C1c2ccncc2C(=O)N1c1ccc(Cl)cc1` [AB_0000610, 2-(4-chlorophenyl)-2,3-dihydro-1h-pyrrolo[3,4-c]pyridine-1,3-dione], the “NMR signal conc 1” value came out at 0.
Still for that read-out and setting: the value for `O=C(Cc1ncon1)Nc1ccc(F)c(F)c1F` [AB_0000630, n1-(2,3,4-trifluorophenyl)-2-(1,2,4-oxadiazol-3-yl)acetamide] was 0.
In the case of `COC(=O)NC(=O)c1nc(-c2ccccc2)c(C)o1` [AB_0000670, methyl n-[(5-methyl-4-phenyl-1,3-oxazol-2-yl)carbonyl]carbamate], the “NMR signal conc 2” value is reported as 0 and the “NMR signal conc 1” value was 2.
Turning to `O=C(Cc1ncon1)Nc1ccc(F)cc1F` [AB_0000690, n1-(2,4-difluorophenyl)-2-(1,2,4-oxadiazol-3-yl)acetamide], the “NMR signal conc 1” value turned out to be 0.
Still for that read-out and setting: for `c1ccc(-c2nnc(-c3ccccn3)nn2)nc1` [AB_0000700, 3,6-di-2-pyridyl-1,2,4,5-tetrazine] the value was 0.
As for `O=C1C(=Cc2ccccc2)C(=O)c2ccccc21` [AB_0000730, 2-benzylidene-1,3-indandione], the “NMR signal conc 1” value amounted to 0.
Regarding `O=C(Nc1ccc(F)cc1)Oc1noc(-c2ccccc2)n1` [AB_0000740, 5-phenyl-1,2,4-oxadiazol-3-yl n-(4-fluorophenyl)carbamate], the “NMR signal conc 1” value was determined as 0.
Regarding `CC1(C)CC(=O)c2sc(NC(=O)c3cccnc3)nc2C1` [AB_0000750, n-(5,5-dimethyl-7-oxo-4,5,6,7-tetrahydro-benzothiazol-2-yl)-nicotinamide], the “NMR signal conc 1” value is on record as 0.
Consider `Sc1nnc(-c2csc(-c3ccccc3)n2)o1` [AB_0000760, 5-(2-phenyl-1,3-thiazol-4-yl)-1,3,4-oxadiazol-2-ylhydrosulfide], for which the “NMR signal conc 2” value is given as 0 and the “NMR signal conc 1” value came out at 1.
In the case of `O=C(CC1OC(=O)c2ccccc21)c1ccccn1` (centres unmarked) [AB_0000790, 3-[2-oxo-2-(2-pyridyl)ethyl]-1,3-dihydroisobenzofuran-1-one], the “NMR signal conc 1” value worked out at 0.
For the compound `OCC(Oc1ccccc1)c1ccccc1` (centres unmarked) [AB_0000810, 2-phenoxy-2-phenyl-1-ethanol], the “NMR signal conc 2” value is on record as 1 and the “NMR signal conc 1” value came to 2.
Regarding `O=C1SC(Br)C(=O)N1c1ccccc1` (centres unmarked) [AB_0000880, 5-bromo-3-phenyl-thiazolidine-2,4-dione], the “NMR signal conc 1” value was determined as 0.
The same measure, in the same setting: for `O=C(c1ccc2ccccc2c1)n1ccnc1` [AB_0000900, 1-(2-naphthoyl)imidazole] the value was 0.
For `COc1ccc(CC(C)=O)cc1Br` [AB_0000910, 3-bromo-4-methoxyphenylacetone], the “NMR signal conc 3” value was 0, the “NMR signal conc 2” value stood at 2 and the “NMR signal conc 1” value stood at 2.
Consider `O=C1C=C(Cl)C(=O)N1c1ccccc1` [AB_0000930, 3-chloro-1-phenyl-pyrrole-2,5-dione], for which the “NMR signal conc 1” value is reported as 0.
Same read-out and setting: for `CCCCc1c(O)nc2ccccn2c1=O` [AB_0000990, 3-butyl-2-hydroxy-4h-pyrido[1,2-a]pyrimidin-4-one] the value was 0.
As to `OC(CNCc1ccccc1)C(F)(F)F` (centres unmarked) [AB_0001000, 3-(benzylamino)-1,1,1-trifluoro-2-propanol], the “NMR signal conc 2” value was 0 and the “NMR signal conc 1” value was 1.
For `N#CCc1ccc(C(=O)c2ccccc2F)s1` [AB_0001010, 2-[5-(2-fluorobenzoyl)-2-thienyl]acetonitrile], the “NMR signal conc 3” value is listed as 2, the “NMR signal conc 2” value stood at 2 and the “NMR signal conc 1” value is on record as 2.
`Fc1cc(F)cc(Cc2nc(-c3cccs3)no2)c1` [AB_0001020, 5-(3,5-difluorobenzyl)-3-(2-thienyl)-1,2,4-oxadiazole]: the “NMR signal conc 2” value stood at 0 and the “NMR signal conc 1” value stood at 1.
In the same order, the values of `O=Cc1cccc(C(F)(F)F)c1Cl` [AB_0001030, 2-chloro-3-(trifluoromethyl)benzaldehyde] are 0 and 1.
The corresponding values for `CC(C)=CC1=C(O)C(=O)c2ccccc2C1=O` [AB_0001040, 2-hydroxy-3-(2-methyl-1-propenyl)-1,4-naphthoquinone] are 1 and 1.
The corresponding values for `N=c1sccn1CC(=O)c1ccc2ccccc2c1` [AB_0001060, 2-(2-imino-thiazol-3-yl)-1-naphthalen-2-yl-ethanone] are 0 and 2.
Turning to `CCn1ccnc1CC1COc2ccccc2O1` (centres unmarked) [AB_0001070, imiloxan hydrochloride], the “NMR signal conc 2” value is 1 and the “NMR signal conc 1” value came out at 1.
For the compound `CC1CN=C(SCc2ccccc2)N1.Cl` (centres unmarked) [AB_0001080, 2-(benzylthio)-5-methyl-4,5-dihydro-1h-imidazol-3-ium chloride], the “NMR signal conc 1” value is listed as 0.
As for `O=C1C=CC(=O)N1c1cccc(Cl)c1` [AB_0001090, n-(3-chlorophenyl)-maleimide], the “NMR signal conc 2” value came out at 0 and the “NMR signal conc 1” value was found to be 1.
For the compound `CCOC(=O)c1c[nH]c2ccccc2c1=O` [AB_0001100, ethyl 4-oxo-1,4-dihydroquinoline-3-carboxylate], the “NMR signal conc 1” value turned out to be 0.
On the same count and under the same terms, for `CSCCNC(=O)c1nc2ccccc2c(=O)n1N` [AB_0001130, 3-amino-n-[2-(methylthio)ethyl]-4-oxo-3,4-dihydroquinazoline-2-carboxamide] the value was 0.
As to `Clc1ccc(COn2ccnc2)cc1Cl` [AB_0001150, 1-[(3,4-dichlorobenzyl)oxy]-1h-imidazole], the “NMR signal conc 2” value was 0 and the “NMR signal conc 1” value is recorded as 2.
Take `OC(CNCc1ccc(Cl)cc1Cl)C(F)(F)F` (centres unmarked) [AB_0001170, 3-[(2,4-dichlorobenzyl)amino]-1,1,1-trifluoro-2-propanol]: the “NMR signal conc 1” value is 0.
Still for that read-out and setting: the value for `O=C(O)c1ccnn(-c2ccccc2)c1=O` [AB_0001180, 3-oxo-2-phenyl-2,3-dihydro-4-pyridazinecarboxylic acid] was 0.
For `c1ccc(CCn2cc(-c3ccncc3)cn2)cc1` [AB_0001190, 4-[1-(2-phenylethyl)-(1h)-pyrazol-4-yl]pyridine], the “NMR signal conc 2” value amounted to 0 and the “NMR signal conc 1” value was 2.
The corresponding values for `COC(=O)c1ccc2ccccc2c1O` [AB_0001200, methyl 1-hydroxy-2-naphthoate] are 0 and 1.
In the same order, the values of `FC(F)(F)c1cccc(-n2ccnc2)c1` [AB_0001220, 1-(3-trifluoromethylphenyl)imidazole] are 0 and 2.
As for `O=C(COc1ccc2ccccc2c1)ON1C(=O)CCC1=O` [AB_0001230, (2-naphthoxy)acetic acid, n-hydroxysuccinimide ester], the “NMR signal conc 1” value is on record as 0.
In the case of `COC(=O)C1OC1c1cc(Cl)ccc1OC` (centres unmarked) [AB_0001240, methyl 3-(5-chloro-2-methoxyphenyl)-2,3-epoxypropionate], the “NMR signal conc 2” value came out at 1 and the “NMR signal conc 1” value is 1.
For the compound `CN(C)C(=O)N(C)c1ccc(Cl)c(Cl)c1` [AB_0001250, 1-(3,4-dichlorophenyl)-1,3,3-trimethylurea], the “NMR signal conc 3” value is given as 1, the “NMR signal conc 2” value came out at 2 and the “NMR signal conc 1” value stood at 2.
For `S=C(Oc1ccccn1)c1csc(C2COc3ccccc3O2)n1` (centres unmarked) [AB_0001260, 2-pyridyl 2-(2,3-dihydro-1,4-benzodioxin-2-yl)-1,3-thiazole-4-carbothioate], the “NMR signal conc 1” value is 0.
